Where two headings read alike, the source gives them in different places.
Tests used:
mouse RORγ = molecular target: T1, mouse RORγ (Mus musculus, UniProt P51450); experiment: Luciferase reporter gene assay of inhibitory effect against RORγ transcriptional activity (GAL4-mRORγ plasmid in CHO cells); type: cell-based
T1 construct: mouse, NM_011281.2 and from Ile251 to Lys516; expressed in transfected cells; host or cells: CHO cells (transient co-transfection with pG5-Luc reporter)
T1 sequence (P51450 251-516): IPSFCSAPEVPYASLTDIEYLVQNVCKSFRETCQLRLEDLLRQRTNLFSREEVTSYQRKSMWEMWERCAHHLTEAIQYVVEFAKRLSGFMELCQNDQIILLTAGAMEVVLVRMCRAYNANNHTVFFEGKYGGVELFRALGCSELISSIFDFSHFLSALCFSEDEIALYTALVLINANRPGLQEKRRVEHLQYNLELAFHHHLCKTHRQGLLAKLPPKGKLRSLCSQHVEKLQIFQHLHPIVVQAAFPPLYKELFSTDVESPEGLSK
Outline: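 Readout is intracellular luciferase after 2-day compound exposure (8 concentrations, 0.1% DMSO) in CHO cells expressing GAL4 fused to mouse RORγ LBD residues Ile251–Lys516 plus pG5-Luc reporter. EC50 fitted from %-of-control; points showing resazurin-detected cytotoxicity dropped.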

human RORγ = molecular target: T2, human RORγ (Homo sapiens, UniProt P51449); experiment: Luciferase reporter gene assay of inhibitory effect against RORγ transcriptional activity (GAL4-hRORγ plasmid in CHO cells); type: cell-based
T2 construct: human, NM_005060.3 and from Ser253 to Lys518; expressed in transfected cells; host or cells: CHO cells (transient co-transfection with pG5-Luc reporter)
T2 sequence (P51449 253-518): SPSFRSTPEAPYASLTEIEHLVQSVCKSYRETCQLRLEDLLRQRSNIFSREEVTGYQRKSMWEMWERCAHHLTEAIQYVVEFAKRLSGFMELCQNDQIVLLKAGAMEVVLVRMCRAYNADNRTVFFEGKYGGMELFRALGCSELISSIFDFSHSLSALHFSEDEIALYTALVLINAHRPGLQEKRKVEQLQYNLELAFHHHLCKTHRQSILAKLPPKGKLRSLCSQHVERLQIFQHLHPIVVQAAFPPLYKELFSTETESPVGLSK

| Compound | EC50 (mouse RORγ; read-out: LUC EC50 (μM) mRORg) [µM] | EC50 (human RORγ; read-out: LUC EC50 (μM) hRORg) [µM] | EC50 (mouse RORγ; read-out: LUC EC50 mRORg) [µM] | EC50 (human RORγ; read-out: LUC EC50 hRORg) [µM] |
| --- | --- | --- | --- | --- |
| Cc1ccc(NC(=O)C[C@H](CCC(=O)O)c2noc(-c3cn(CCC(C)(C)C)nc3C(F)(F)F)c2C2CC2)c(F)c1 [Example E-19] | > 3 | > 3 | – | – |
| CC(=O)N1C[C@H](C(=O)Nc2ccc(Cl)cc2C)[C@@H](c2nnc(-c3cc(CC(C)C)on3)n2C2CC2)C1 [Example F-613] | – | – | < 3 | < 3 |
| Cc1ccc(NC(=O)C[C@H](CCO)c2nnc(C3CC4(CCC(C)(C)CC4)C3)n2C2CC2)c(C)c1 [Example F-602] | – | – | < 3 | < 3 |
| Cc1ccc(NC(=O)CCc2noc(C(F)(F)c3cc(C(C)(C)C)no3)c2C2CC2)c(Cl)c1 [Example F-740] | – | – | < 3 | < 3 |
| COc1cc(NC(=O)C[C@H](CCO)c2nnc([C@H]3C[C@@H](CC(C)C)C3)n2C2CC2)ccc1Cl [Example F-520] | – | – | < 3 | < 3 |
| CC(C)CCc1nnc(CCC(=O)NC2CCCCC2C)n1C1CC1 (centres unmarked) [Example F-102] | > 3 | > 3 | – | – |
| CCC(C)(C)C[C@H]1C[C@@H](c2onc([C@@H](CCC(=O)O)CC(=O)Nc3ccc(C)nc3C)c2C(F)(F)F)C1 [Example F-697] | – | – | < 3 | < 3 |
| Cc1ccc(NC(=O)C[C@H](CCc2nnn[nH]2)c2noc([C@H]3C[C@@H](CC(C)C)C3)c2C2CC2)c(C)c1 [Example F-644, (S)-3-[4-cyclopropyl-5-(3-isobutyl-cyclobutyl)-isoxazol-3-yl]-5-(1H-tetrazole-5-yl)-valeric acid (2,4-dimethyl-phenyl)-amide] | – | – | < 3 | < 3 |
| Cc1ccc(NC(=O)[C@H]2CC(O)(C(F)(F)F)C[C@@H]2c2nnc([C@H]3C[C@@H](CC(C)C)C3)n2C2CC2)c(C)c1 (mixture of isomers) [Example F-545] | – | – | < 3 | < 3 |
| Cc1ccc(NC(=O)C[C@H](CCC(=O)O)c2nnc([C@H]3C[C@@H](CC(C)(C)C(C)C)C3)n2C2CC2)c(Cl)c1 [Example F-708] | – | – | < 3 | < 3 |
| CCN(CC)CC(=O)N1C[C@H](C(=O)Nc2ccc(C)cc2C)[C@@H](c2nnc([C@H]3C[C@@H](CC(C)(C)C)C3)n2C2CC2)C1 [Example F-650] | – | – | < 3 | < 3 |
| CNC(=O)CC(CC(=O)Nc1ccc(C)cc1C)c1nnc(CCCC(C)C)n1C1CC1 (racemic) [Example F-265] | < 3 | > 3 | – | – |
| Cc1c(Cl)cccc1NC(=O)CCc1nnc(CCC2CCCN(C)C2)n1C1CC1 (racemic) [Example F-203] | > 3 | > 3 | – | – |
| Cc1ccc(NC(=O)C[C@H](CCC(=O)O)c2noc(-c3cc(C(F)(F)C(C)(C)C)on3)c2C2CC2)c(F)c1 [Example E-46] | < 3 | < 3 | – | – |
| CCn1c(CCCC(C)(C)C)nnc1[C@H]1CN(C(C)=O)C[C@@H]1C(=O)Nc1ccc(C)cc1C (racemic) [Example F-351] | < 3 | < 3 | – | – |
| CCn1c(CCC(=O)Nc2cccc(Cl)c2C)nnc1C1Cc2ccccc2C1 [Example F-3] | < 3 | > 3 | – | – |
| Cc1cnc(NC(=O)C[C@H](CCC(=O)O)c2noc([C@H]3C[C@@H](CC(C)(C)C)C3)c2C2CC2)c(C)c1 [Example F-681] | – | – | < 3 | < 3 |
| CC(C)CCc1nnc(CCC(=O)Nc2ccccc2Cl)n1C1CC1 [Example F-93] | > 3 | > 3 | – | – |
| Cc1ccc(NC(=O)C[C@@H](c2nnc([C@H]3C[C@@H](CC(C)C)C3)n2C2CC2)N(C)C)c(C)c1 [Example F-516] | – | – | < 3 | < 3 |
| CC(=O)N1C[C@H](C(=O)Nc2ccc(C)cc2C)[C@@H](c2nnc(-c3ccc(C(C)C)cc3)n2C2CC2)C1 [Example F-371] | < 3 | < 3 | – | – |
| Cc1ccc(NC(=O)CCc2nnc(CCC3CCCCC3)n2CC(F)(F)F)c(C)c1 [Example F-142] | < 3 | < 3 | – | – |
| CC(=O)N1C[C@H](C(=O)Nc2ccc(Cl)cc2F)[C@@H](c2nnc([C@H]3C[C@@H](CC(C)C)C3)n2C2CC2)C1 [Example F-604] | – | – | < 3 | < 3 |
| Cc1ccc(NC(=O)[C@@H](CCC(=O)O)Cc2noc([C@H]3C[C@@H](CC(C)(C)C)C3)c2C2CC2)c(Cl)c1 [Example F-684, (S)-4-(2-chloro-4-methyl-phenylcarbamoyl)-5-{4-cyclopropyl-5-[3-(2,2-dimethyl-propyl)-cyclobutyl]-isoxazol-3-yl}-pentanoic acid] | – | – | < 3 | < 3 |
| CCn1c(CCC(=O)Nc2ccccc2)nnc1C1Cc2ccccc2C1 [Example F-23] | > 3 | > 3 | – | – |
| CCC(C)CCc1nnc(CCC(=O)Nc2cccc(Cl)c2C)n1C1CC1 (racemic) [Example F-235] | < 3 | < 3 | – | – |
